Entries after “also recorded” stand apart in the source; their conditions may differ.
Experiments:
[1] = tested on: Kras/Lkb1 lung tumors; experiment: Treatment of Kras/Lkb1 mice, tumor burden; type: in vivo, mouse
[2] = tested on: Kras/Lkb1 lung tumors; experiment: Ki67 staining of TTF1+ and CK5+ Kras/Lkb1 tumors after treatment; type: in vivo, mouse; settings: 15 mg/kg/day, 12 days
[3] = tested on: A549 and RH2 cells; experiment: Cell viability of human ADC (A549) and SCC (RH2) cell lines; type: cell-based; settings: A549 vs RH2, 48 hr, low doses
Source text: (§1) Experiments were repeated twice.

[4] = Phenformin quantification in lung tumors by LC/MS; type: in vivo, mouse; settings: 100-200 mg/kg oral gavage, 5 days, vs vehicle
Method: Tumors were homogenized with a Tissue Master (Omni international) in 1 ml chilled 80% Methanol. Tumor suspensions were spun down at 4° C. for 5 min at 17,000g, and the top layer taken as extracted metabolites. The volume equivalent of 1 mg of tumor was transferred into glass vials and the samples were dried with a EZ2-Elite lyophilizer (Genevac). Dried metabolites were re-suspended in 100 μl of 50%:50% acetonitrile (ACN):dH20 solution; 10 μl of these suspensions were injected per analysis. Samples were run on a Vanquish (Thermo Scientific) UHPLC system with mobile phase A (5 mM NH4AcO, pH 9.9) and mobile phase B (ACN). […] The UHPLC was coupled to a Q-Exactive (Thermo Scientific) mass analyzer running in positive mode at 3.5 kV with an MS1 resolution of 70,000. Metabolites were identified using exact mass (MS1), retention time, and fragmentation patterns (MS2) at normalized collision energy (NCE) 35. Quantification was performed via area under the curve (AUC) integration of MS1 ion chromatograms with the MZmine 2 software package. For the quantification of absolute moles of phenformin, one tumor from the vehicle group was selected to provide a representative tumor small molecular matrix. […]

[5] = tested on: mouse adenocarcinoma and squamous cell carcinoma cell lines; experiment: Cell viability of mouse adenocarcinoma and squamous cell carcinoma cell lines; type: cell-based; settings: 48 hr, low doses
Source text: as §1

[6] = tested on: A549 cells; experiment: Respirometry (Seahorse OCR), A549; type: cell-based, human; settings: A549, 1 mM, 45 min
Method: Experiments were conducted on a Seahorse XF96 Extracellular Flux Analyzer (Agilent Technologies) in order to measure oxygen consumption rate (OCR) and extracellular acidification rate (ECAR). […] On the day of the experiment, assay medium (Seahorse XF Base Medium supplemented with 2 mM L-glutamine, 1mM Pyruvate and 10 mM glucose) was freshly prepared. The cells were washed twice with assay medium and brought to a final volume of 175 μL per well. The XF96 plate was placed in a 37° C. incubator without CO2 for 30 minutes prior to loading the plate into the instrument. Injection of compounds during the assay included: the mitochondrial ATP Synthase inhibitor oligomycin (final concentration of 2 μM); the chemical uncoupler, FCCP (final concentration of 1 μM); and the Complex I inhibitors rotenone (final concentrations 2 μM) and phenformin (final concentration 1 mM) and Complex III inhibitor antimycin A (final concentrations of 2 μM). […] Activity of complex I was measured in permeabilized cells using XF PMP assay where complex I dependent OCR was measured by determining OCR in the presence of pyruvate and malate (as substrates for complex I) before and after addition of rotenone (complex I inhibitor).

[7] = tested on: Kras/Lkb1 lung tumors; experiment: Cleaved caspase 3 and Ki67 staining of Kras/Lkb1 tumors; type: in vivo, mouse; settings: short-term 5 day treatment
Method: After the fixation step in 10% neutral buffered formalin overnight, lungs were transferred to 70% ethanol and further processing and embedding was done by the TPCL at UCLA. The following antibodies were used: anti-CK5 (EP1601Y) (abcam, ab52635 1:100), anti-TTF1 (8G7G3/1) (Dako, 1:1000), anti-Ki67 (SP6) (Thermo-Scientific, RM-9106-SO 1:200), anti-Glut1 (alpha-diagnostic, GT11-A, 1:400). Slides were scanned onto a ScanScope AT (Aperio Technologies Inc.). Digital slides were analyzed with Definiens and QuPath software.

[8] = tested on: A549 cells; experiment: Mitochondrial membrane potential (ΔΨ) by TMRE flow cytometry, A549; type: cell-based, human; settings: A549, short-term treatment 3 hr
Method: Experiments were conducted by analyzing TMRE fluorescence using flow cytometry. […] Cells were resuspended in 0.5 ml DMEM with 5% FBS containing different concentrations of phenformin or oligomycin or FCCP as indicated in figure legends. […] Cells were washed twice in phenol red free DMEM and cellular fluorescence was acquired with a BD LSRII analyzer at UCLA Flow Cytometry Core. Data was analyzed with Flowing Software.

[9] = tested on: A549 cells; experiment: In vitro 18FBnTP uptake assay, A549; type: cell-based, human; settings: A549, 1 mM, 3 hr
[10] = tested on: Kras/Lkb1 lung tumors; experiment: 18FBnTP PET of lung tumors in Kras/Lkb1 GEMMS before and after treatment; type: in vivo, mouse; settings: 5 days, vs vehicle
Source text: We performed studies with the genetically engineered mouse model of lung cancer using Kras-Lox-Stop-Lox-G12D; Lkb1 Lox/Lox; Rosa26-Lox-Stop-Lox-Luc mice (KL) as described previously [Ref. 33]. Briefly, lung tumors were induced by intranasal administration of 5×10^5 transduction units of Lenti-PGK-Cre (Cat. #FCT071, Kerafast,) as previously described [Ref. 9, 33]. Lentiviral delivery of Cre recombinase to KL mice leads to near 100% development of lung adenocarcinomas [Ref. 36]. KL mice that were inhaled with LentiCre were used in studies with Phenformin treatment. For studies where mice were imaged with both ^18FBnTP and ^18F-FDG probes, KL mice were inhaled with Adenoviral Cre, which leads to development of both ADC and SCC tumors. For all treatments, KL mice were imaged with ^18FBnTP and sorted into two groups based on tumor maximum percent injected dose per gram (%ID/g) values, so that two groups would have similar maximum %ID/g values. Treatment was initiated on the same day or on the following day after ^18FBnTP imaging. Mice were treated with 125 mg/kg/day phenformin for 5 days or 15 mg/kg/day IACS-010759 for 12 days. The drugs were delivered by oral gavage. All experimental procedures that were performed on mice were approved by the UCLA Animal Research Committee (ARC). Both male and female mice were used in all experiments and no preference in mouse gender was given for any of the studies.
In order to reduce variability between mice imaged with ^18FBnTP, maximum percent injected dose per gram (%ID/g) for each tumor was normalized to maximum %ID/g of heart as indicated in the figures. For waterfall plots in FIG. 2m and FIGS. 8e-8f, we calculated % change in the uptake of the ^18FBnTP probe post-treatment relative to pre-treatment using maximum %ID/g of the tumor that was normalized to maximum %ID/g of the heart for each mouse.

[11] = tested on: Kras/Lkb1 tumors; settings: cited from earlier work

| SMILES | tumor burden (percent of lung area occupied by tumor) ([1]; 15 mg/kg/day oral gavage, 12 days, vs vehicle) | sensitivity of 18FBnTP POS tumors to complex I inhibition ([1]; Kras/Lkb1 mice) | Ki67 positive cells in TTF1+ ADCs [2] | response of CK5+ SCCs (Ki67) [2] | sensitivity (cell viability) of lung ADC line vs SCC line [3] | phenformin in lung tumor tissue by mass spectrometry [4] | sensitivity (cell viability) of lung ADC line vs SCC line [5] | cellular OXPHOS (OCR) by respirometry [6] | cleaved caspase 3 and Ki67 staining (apoptosis, proliferation) [7] | ΔΨ measured by TMRE staining [8] | 18FBnTP uptake (gamma counter) [9] | 18FBnTP uptake in lung tumors post-treatment ([10]; 125 mg/kg/day oral gavage) | 18FBnTP uptake in lung tumors, three independent experiments ([10]; 125 mg/kg/day) | change in 18FBnTP uptake post-treatment to pre-treatment ([10]; 125 mg/kg/day) | cellular apoptosis after longer treatment ([11]; 4-8 weeks treatment, Ref. 9,19) | sensitivity of Kras/Lkb1 tumors ([11]; Ref. 9) | response of lung SCC tumors from Kras/Lkb1 mice ([11]; Ref. 19,33) |
| --- | --- | --- | --- | --- | --- | --- | --- | --- | --- | --- | --- | --- | --- | --- | --- | --- | --- |
| Cc1nc(-c2nc(-c3ccc(OC(F)(F)F)cc3)no2)nn1Cc1cccc(N2CCC(S(C)(=O)=O)CC2)c1 [IACS-010759] | significant reduction in tumor burden | sensitive | significant reduction in Ki67 positive cells | refractory | more sensitive |  |  |  |  |  |  |  |  |  |  |  |  |
| [H]/N=C(/N)N/C(=N/[H])NCCc1ccccc1 [phenformin] |  |  |  |  | more sensitive | significant increase in phenformin in tumors | more sensitive | significant reduction of cellular OXPHOS | no evidence of phenformin induced apoptosis or reduced cell viability; also recorded: does not induced changes in proliferation or apoptosis | significantly reduced ΔΨ in a dose dependent manner | significantly reduced | significant reduction; also recorded: suppresses | significant reduction | significant drop in tracer uptake | resulted in cellular apoptosis | sensitive | refractory |

Source: US20220347323A1, “Positron Emission Tomography Guided Delivery of Mitochondral Complex I Inhibitors” (priority 2019, published 2022)
